For this assay, the system named is VEGF-stimulated ADSC/ECFC co-culture, nuclear area imaging. The assay can be described thus: nuclear area loss in endothelial-stromal co-culture, dose response, cell-based, VEGF stimulation, IC50 (AID 1117324).

Active and inactive are the calls of the source. How the calls were made is not given here. Where a SMILES comes first, the peptide text is derived from it. Bridges are numbered along the chain shown (N, C = ends). [ ]: non-standard residue; d: D form. hArg = N=C(N)NCCCC[C@H](N)C(=O)O; Mpa = O=C(O)CCS

Regarding `CC[C@@H]([C@H](C)O)n1ncn(-c2ccc(N3CCN(c4ccc(OC[C@@H]5CO[C@@](Cn6cncn6)(c6ccc(F)cc6F)C5)cc4)CC3)cc2)c1=O`, the IC50 was > 10 µM (inactive). As to `Cc1ccc(Nc2nccc(N(C)c3ccc4c(C)n(C)nc4c3)n2)cc1S(N)(=O)=O`, the IC50 is > 10 µM (inactive). For the molecule `Cc1cc(C(C#N)c2ccc(Cl)cc2)c(Cl)cc1NC(=O)c1cc(I)cc(I)c1O` (configuration not stated), the IC50 is 7.36 µM (inactive). For the molecule `CCCCC(CC)CN=C(N)NC(N)=NCCCCCCN=C(N)NC(N)=NCC(CC)CCCC` (configuration not stated), the IC50 was > 10 µM (inactive).

Take `Cc1cccc(Nc2cc(Cl)nc(SCC(=O)O)n2)c1C`: the IC50 was > 10 µM (inactive). In the case of `CCC1Nc2cc(Cl)c(S(N)(=O)=O)cc2S(=O)(=O)N1` (configuration not stated), the IC50 is > 10 µM (inactive). Consider `O=C(Nc1ccc(Cl)cc1)Nc1ccc(Cl)c(Cl)c1`, for which the IC50 is > 10 µM (inactive).

Take `O=[N+]([O-])c1cc(I)c(O)c(I)c1`: the IC50 is > 10 µM (inactive). As for `CC(C)(C)CC(C)(C)c1ccc(O)cc1`, the IC50 was 9.11 µM (inactive). To `O=c1oc2c(O)c(O)cc3c(=O)oc4c(O)c(O)cc1c4c23` belongs > 10 µM (inactive).

Take `CCN(CC)CCCC(C)Nc1c2ccc(Cl)cc2nc2ccc(OC)cc12` (configuration not stated): the IC50 was > 10 µM (inactive). To `CCN(CC)CCNc1ccc(CO)c2sc3ccccc3c(=O)c12` belongs > 10 µM (inactive); to `Cc1cc(OCCOCC[N+](C)(C)Cc2ccccc2)ccc1C(C)(C)CC(C)(C)C`, 8.7 µM (inactive). To `CCOC(=O)[C@H](CCc1ccccc1)N[C@@H](C)C(=O)N1Cc2cc(OC)c(OC)cc2C[C@H]1C(=O)O` belongs > 10 µM (inactive). For `NC(=O)[C@@H]1CSSCCC(=O)N[C@@H](CCCCN=C(N)N)C(=O)NCC(=O)N[C@@H](CC(=O)O)C(=O)N[C@@H](Cc2c[nH]c3ccccc23)C(=O)N2CCC[C@H]2C(=O)N1` ([Mpa][hArg]GDWPC-NH2; disulfide 1-7), the IC50 is > 10 µM (inactive). `OC[C@H]1O[C@@H](n2cnc3c(=S)nc[nH]c32)[C@H](O)[C@@H]1O`: the IC50 is > 10 µM (inactive). On to `CCc1cccc(N(C)C(N)=Nc2cccc3ccccc23)c1`, for which the IC50 was > 10 µM (inactive). Turning to `Cc1cc(OI)c(C(C)C)cc1-c1cc(C(C)C)c(OI)cc1C`, the IC50 is > 10 µM (inactive). Turning to `C#C[C@]1(OC(C)=O)CC[C@H]2[C@@H]3CCC4=C/C(=N/O)CC[C@@H]4[C@H]3CC[C@@]21CC`, the IC50 is > 10 µM (inactive). Regarding `O=C1OC(OC(=O)c2cccnc2Nc2cccc(C(F)(F)F)c2)c2ccccc21` (configuration not stated), the IC50 was > 10 µM (inactive). With `CC[N+](CC)(CC)CCOc1ccc(/C=C/c2ccccc2)cc1` the figure was > 10 µM (inactive). On to `Cc1cc(=O)c2c(O)c3c(O)cc(=O)c4c3c3c(cc(O)c1c23)C(C)(C)C=4O`, for which the IC50 was 2.07 µM. For `OCCN1CCN(CCCN2c3ccccc3Sc3ccc(Cl)cc32)CC1`, the IC50 is > 10 µM (inactive). In the case of `COC(=O)C1=C(C)NC(C)=C(C(=O)OC(C)(C)CN(C)CCC(c2ccccc2)c2ccccc2)C1c1cccc([N+](=O)[O-])c1` (configuration not stated), the IC50 is > 10 µM (inactive). Consider `CN(C)c1ccc(C(=C2C=CC(=[N+](C)C)C=C2)c2ccccc2)cc1`, for which the IC50 is 1.72 µM. For the molecule `O=C1c2ccccc2C(=O)C1C(=O)C(c1ccccc1)c1ccccc1`, the IC50 was > 10 µM (inactive).

With `O=C1CC(c2ccc(Cl)cc2)CC(=O)N1`, the IC50 is > 10 µM (inactive). On to `O=C(NC(=O)c1c(F)cccc1F)Nc1ccc(Cl)c(Oc2ncc(C(F)(F)F)cc2Cl)c1`, for which the IC50 is > 10 µM (inactive). With `COC(=O)C(Cl)C(=O)OC` the figure was > 10 µM (inactive); with `CC(=O)O[C@H]1C[C@H](O[C@H]2[C@@H](O)C[C@H](O[C@@H]3[C@@H](O)C[C@H](O[C@H]4CC[C@@]5(C)[C@H](CC[C@@H]6[C@H]5C[C@@H](O)[C@]5(C)[C@@H](C7=CC(=O)OC7)CC[C@]65O)C4)O[C@@H]3C)O[C@@H]2C)O[C@H](C)[C@H]1O[C@@H]1O[C@H](CO)[C@@H](O)[C@H](O)[C@@H]1O`, 0.279 µM. Turning to `CCCCCCCCCCCC(=O)[O][Sn]([CH2]CCC)([CH2]CCC)[O]C(=O)CCCCCCCCCCC`, the IC50 is > 10 µM (inactive). `C=CCCCCCCCCC(=O)OC`: the IC50 is > 10 µM (inactive).

Consider `COC(=O)CCCCC(CCSS/C(CCO)=C(\C)N(C=O)Cc1cnc(C)nc1N)SC(C)=O` (configuration not stated), for which the IC50 was > 10 µM (inactive). In the case of `NC(=NCCCCCCN=C(N)/N=C(\N)Nc1ccc(Cl)cc1)/N=C(\N)Nc1ccc(Cl)cc1`, the IC50 is > 10 µM (inactive). With `COC(=O)Nc1nc2ccc(S(=O)c3ccccc3)cc2[nH]1` (configuration not stated), the IC50 was > 10 µM (inactive). To `Nc1nc(=S)c2[nH]cnc2[nH]1` belongs > 10 µM (inactive).

For the molecule `Cc1nc2ccc(CN(C)c3ccc(C(=O)N[C@@H](CCC(=O)O)C(=O)O)s3)cc2c(=O)[nH]1`, the IC50 is > 10 µM (inactive). As to `CC[C@@]1(O)C(=O)OCc2c1cc1n(c2=O)Cc2c-1nc1ccccc1c2/C=N/OC(C)(C)C`, the IC50 is 0.799 µM. Regarding `Cc1ccccc1C(=O)Nc1ccc(C(=O)N2CCCC(N(C)C)c3ccccc32)cc1` (configuration not stated), the IC50 is > 10 µM (inactive). With `COC(=O)Nc1nc2ccc(C(=O)c3ccccc3)cc2[nH]1`, the IC50 was > 10 µM (inactive). Consider `Cc1c(C(=O)NN2CCCCC2)nn(-c2ccc(Cl)cc2Cl)c1-c1ccc(Cl)cc1`, for which the IC50 is > 10 µM (inactive). For the molecule `CCCn1cnc2c1c(=O)n(CCCCC(C)=O)c(=O)n2C`, the IC50 is > 10 µM (inactive). Consider `C/C(=N\O)[C@@H](C)NCC(C)(C)CN[C@H](C)/C(C)=N/O`, for which the IC50 is > 10 µM (inactive). For the molecule `COC(=O)Nc1nc2ccc(C(=O)c3cccs3)cc2[nH]1`, the IC50 is > 10 µM (inactive). Take `CC(C)CCCC(C)NCCC(C)C` (configuration not stated): the IC50 is > 10 µM (inactive). Turning to `OCCN1CCN(CCCN2c3ccccc3Sc3ccc(C(F)(F)F)cc32)CC1`, the IC50 is > 10 µM (inactive). As for `Cc1cc2nc3ccc(=[N+](C)C)cc-3sc2cc1N`, the IC50 was 8.15 µM (inactive). In the case of `CCC1=C[C@@H]2CN(C1)Cc1c([nH]c3ccccc13)[C@@](C(=O)OC)(c1cc3c(cc1OC)N(C)[C@H]1[C@@](O)(C(=O)OC)[C@H](OC(C)=O)[C@]4(CC)C=CCN5CC[C@]31[C@@H]54)C2`, the IC50 was > 10 µM (inactive). As to `COc1ccc(/C=C/C(=O)c2ccc(OC)cc2OC)cc1`, the IC50 is > 10 µM (inactive). As to `O=NN(CCCl)C(=O)NC1CCCCC1`, the IC50 was > 10 µM (inactive). On to `O=C1C(=O)c2ccccc2C(O)=C1C1CCC(c2ccc(Cl)cc2)CC1` (configuration not stated), for which the IC50 was > 10 µM (inactive). On to `CCCCCCCCCCCCCCCC[N+](C)(C)CC`, for which the IC50 was 7.58 µM (inactive).

`CC(=O)NC(=O)c1ccccc1O`: the IC50 was > 10 µM (inactive). Take `CCOC(=O)C=C(C)C=CC[C@@H](C)CCCC(C)C`: the IC50 is > 10 µM (inactive).

For `O=C(OCc1ccccc1)c1cccnc1`, the IC50 is > 10 µM (inactive). On to `C[C@H]1O[C@@H](O[C@H]2CC[C@@]3(C)[C@H](CC[C@@H]4[C@@H]3C[C@@H](O)[C@]3(C)[C@@H](C5=CC(=O)OC5)CC[C@]43O)C2)C[C@H](O)[C@@H]1O[C@H]1C[C@H](O)[C@H](O[C@H]2C[C@H](O)[C@H](O[C@@H]3O[C@H](CO)[C@@H](O)[C@H](O)[C@H]3O)[C@@H](C)O2)[C@@H](C)O1`, for which the half-inhibitory concentration (IC50) is 0.299 µM. Turning to `C[C@H]1O[C@@H](O[C@H]2[C@@H](O)C[C@H](O[C@H]3[C@@H](O)C[C@H](O[C@H]4CC[C@@]5(C)[C@H](CC[C@@H]6[C@@H]5CC[C@]5(C)[C@@H](C7=CC(=O)OC7)CC[C@]65O)C4)O[C@@H]3C)O[C@@H]2C)C[C@H](O)[C@@H]1O`, the IC50 is 0.103 µM. For the molecule `CCC1C(=O)OCC1Cc1cncn1C` (configuration not stated), the IC50 is > 10 µM (inactive). With `COC(=O)c1nc(Cl)c(Cl)nc1N` the figure was 6.8 µM (inactive); with `CCCSS/C(CCO)=C(\C)N(C=O)Cc1cnc(C)nc1N`, > 10 µM (inactive); with `C=CCN1CC[C@]23CCCC[C@H]2[C@H]1Cc1ccc(O)cc13`, > 10 µM (inactive). In the case of `Cc1c(C)c2c(c(C)c1O)CC[C@@](C)(CCC[C@H](C)CCC[C@H](C)CCCC(C)C)O2`, the IC50 is > 10 µM (inactive).

In the case of `C[C@@H]1C[C@H]2[C@@H]3CCC4=CC(=O)C=C[C@]4(C)[C@@]3(Cl)[C@@H](O)C[C@]2(C)[C@@]1(OC(=O)c1ccco1)C(=O)CCl`, the IC50 was > 10 µM (inactive). In the case of `COc1ccc2c(c1)c1c3n2CCN(C)C3=NCC1`, the IC50 is > 10 µM (inactive). Consider `O=c1[nH]sc2cc(Cl)ccc12`, for which the IC50 is 9.43 µM (inactive). Take `Cc1ccc(Nc2c(F)cccc2Cl)c(CC(=O)O)c1`: the IC50 is > 10 µM (inactive).

For the molecule `Cc1cccc(C)c1NC(=O)CC12CCCN1CCC2`, the IC50 was > 10 µM (inactive). To `CCCCC[C@@H](O)CC[C@H]1[C@@H]2Cc3cccc(OCC(=O)O)c3C[C@@H]2C[C@@H]1O` belongs > 10 µM (inactive); to `CC(=O)Oc1cccc2c1C(=O)c1c(OC(C)=O)cc(C(=O)O)cc1C2=O`, > 10 µM (inactive); to `CCCCC1C(=O)N(c2ccccc2)N(c2ccc(O)cc2)C1=O` (configuration not stated), 8.83 µM (inactive).

For the molecule `CCN(CC)CCOc1ccc(C(O)(Cc2ccc(Cl)cc2)c2ccc(C)cc2)cc1` (configuration not stated), the IC50 was 6.98 µM (inactive). Consider `CNC(=O)Oc1cccc2ccccc12`, for which the IC50 is > 10 µM (inactive). With `Clc1ccc(CCC(Cn2ccnc2)Sc2c(Cl)cccc2Cl)cc1` (configuration not stated), the IC50 was 6.74 µM (inactive). On to `Cn1cc(S(C)=O)c(=O)c2ccc(F)cc21` (configuration not stated), for which the IC50 was > 10 µM (inactive). `O=C(CCCN1CCC(O)(c2cccc(C(F)(F)F)c2)CC1)c1ccc(F)cc1`: the IC50 was > 10 µM (inactive). For the molecule `COCC(=O)O[C@]1(CCN(C)CCCc2nc3ccccc3[nH]2)CCc2cc(F)ccc2[C@@H]1C(C)C`, the IC50 is > 10 µM (inactive). In the case of `COc1ccc(CCN2CCC(Nc3nc4ccccc4n3Cc3ccc(F)cc3)CC2)cc1`, the IC50 was > 10 µM (inactive).

Source of the values: PubChem BioAssay AID1117324 (Cheminformatics & Chemogenomics Research Group (CCRG), …, 2015).
